Source: US8101389B2, “Bacterial glutamine synthetases and methods of use” (Athenix Corp, priority 2006, dated 2012)

Experiments:
N[C@@H](CCC(=O)O)C(=O)O [1] = assay: enzymatic assay, kinetics of AGS1(AD-); format: biochemical, Serratia marcescens; conditions: other: Table 5
Description: ags1(ad-) (SEQ ID NO:43) encoding the AGS1(AD-) protein (SEQ ID NO:44), is a variant of ags1 in which the putative adenylylation site has been removed by mutating the tyrosine at position 398 of AGS1 to a phenylalanine by site directed mutagenesis.
(§1) The unmodified enzyme (AGS1) was compared to AGS1(AD-) and AGS1m17(AD-) by carrying out enzymatic assays on both enzymes following purification from E. coli. A glutamine synthetase enzyme from E. coli (GlnA) was also tested.

N[C@@H](CCC(=O)O)C(=O)O [2] = assay: enzymatic assay, kinetics of AGS1m17(AD-); format: biochemical, Serratia marcescens; conditions: other: Table 5
Description: ags1m17(ad-) (SEQ ID NO:45) encoding the AGS1m17(AD-) protein (SEQ ID NO:46), is a variant of ags1m17 in which the putative adenylylation site has been removed by mutating the tyrosine at position 398 of AGS1 to a phenylalanine by site directed mutagenesis.
as §1

E. coli cells [3] = assay: Growth of E. coli transformants on M63 plates containing glufosinate; format: cell-based; conditions: for growth on glufosinate minimal M63+ agar media: 2, 10, 20, 50 and 100 mM glufosinate, DH5a E. coli cells
Description: To reconfirm that TKH2 and TKH3 confer resistance to 20 mM glufosinate, the purified plasmids were retransformed into DH5α cells. pUC18 was retransformed as a negative control. The transformation mixes were plated directly on M63 minimal plates with or without 20 mM glufosinate.
(§2) Mutants of the bacterial glutamine synthetase gene ags1 (SEQ ID NO:1) were created by error-prone mutagenesis using the GENEMORPH® Random Mutagenesis kit, and also using oligo-directed mutagenesis as known in the art. However, many methods are available for creating libraries of mutants. The resulting mutants were cloned into a pUC19 vector, electroporated into either XL-1 or DH5 alpha E. coli cells, and selected for growth on M63+ agar media containing antibiotic and 2, 10, or 20 mM glufosinate. Twenty-two clones were identified as growing on 20 mM glufosinate, and picked for further analysis.
(§3) ags1m2 was mutagenized by error-prone mutagenesis using GENEMORPH® II Random Mutagenesis kit (Stratagene) according to manufacturer's instructions. Mutagenized PCR product was digested with Sac I and Hind III, and ligated into a pUC vector, similarly digested with Sac I and Hind III. Ligations were transformed into E. coli cells, and plated onto M63+ plates containing antibiotic, and 125 mM glufosinate. Clones growing on 125 mM glufosinate plates were retested on 200 mM glufosinate plates, and compared to similar platings of ags1m1 and ags1m2. […] The DNA sequence of the ags open reading frame in pAX3439 was sequenced, and the gene designated as ags1m16. The DNA sequence of ags1m16 is represented herein as SEQ ID NO:31, and the amino acid sequence is represented herein as SEQ ID NO:32. AGS1m16 differs from AGS1m2 at a single amino acid at position H212 of the protein, which is modified from Histidine (‘H’) to Asparagine (‘N’), and contains a total of five amino acid changes relative to the wild-type AGS1 (see FIG. 1 and Table 3).
Clones expressing AGS1m17, AGS1m18, AGS1m19, or AGS1m20 were all found to be able to grow on plates containing 375 mM glufosinate, whereas no growth of clones expressing AGS1m16 was observed on plates containing 375 mM glufosinate.

maize = assay: Leaf protein content of T0 transgenic maize plants (Bradford assay); format: in vivo
Text: synags1m16 (SEQ ID NO:47) is an alternate DNA sequence that encodes the AGS1m16 protein (SEQ ID NO:32). synags1m16 was cloned into a shuttle vector to guide overexpression of AGS1m16 in maize. The vector places overexpression of synags1m16 under the control of the Trp5 promoter (U.S. application Ser. No. 11/377,318, filed Mar. 16, 2006 and herein incorporated by reference in its entirety).
Nine transgenic maize plants containing ags1m16 were generated. Protein expression of the AGS1m16 protein was confirmed by Western blot for each of these events.
Nitrogen use efficiency was evaluated for these events by determining the protein content of leaf samples isolated from the T0 plants after four weeks of growth in the greenhouse.
The protein in leaf samples was quantified as follows: Fifty milligrams of leaf material (fresh weight, no midrib) were freeze-dried for dry weight determination. The dehydrated leaf tissue was then ground in the presence of fresh Milli Q water using a MiniBeadbeater-96™ and 2.3 mm stainless-steel beads. The ground leaf tissue was filtered through a 0.45 μm Polyvinylidene Fluoride (PVDF) filter. Bio-Rad Protein Dye was added to leaf samples diluted in water, and a Bradford protein assay was performed and read in the spectrophotometer at 595 nm vs. internal protein standards included in the assay. […]

N[C@@H](CCC(=O)O)C(=O)O [4] = assay: enzymatic assay, kinetics of AGS1m21; format: biochemical, Serratia marcescens; conditions: other: Table 4
Text: (§4) ags1m21 (SEQ ID NO:41) encodes the AGS1m21 protein (SEQ ID NO:42). AGS1m21 is a variant of AGS1 that contains a similar amino acid change identified in other variants (V214M), as well as two novel mutations (N160S and G167R). This enzyme was expressed in E. coli, purified, and the kinetic values Km(glutamate) and Ki(glufosinate) of the variant measured by enzymatic assay.

[5] = test system: pea leaf glutamine synthetase; conditions: Leason et al. (1982); cited from earlier work
N[C@@H](CCC(=O)O)C(=O)O [6] = assay: enzymatic assay, kinetics of wild-type AGS1; format: biochemical, Serratia marcescens; conditions: other: Table 4
Text: (§5) ags1m1 (pAX3421) and ags1m2 (pAX3422) were subcloned into E. coli expression vector pRSF1B (Invitrogen) so as to create an N-terminus encoding a 6Xhis tag, purified and characterized kinetically.
as §4, §1

E. coli cells [7] = assay: Growth of E. coli transformants on M63 plates containing glufosinate; format: cell-based; conditions: 50 mM glyphosate (so in the source); versus the other variants except AGS1m16
[8] = test system: E. coli cells with AGS1 variant AGS1m2 (pAX3422), F81S, P185S, G218S, I303N, SEQ ID NO:6; assay: growth of E. coli on herbicide plates, ags1m2; format: cell-based; conditions: 50 mM glyphosate; than the other variants, except AGS1m16
Description: as §2
as §3, with “AGS1m16 differs from AGS1m2 at a single amino acid at position H212 of the protein, which is modified from Histidine (‘H’) to Asparagine (‘N’), and contains a total of five amino acid changes relative to the wild-type AGS1 (see FIG. 1 and Table 3).” left out

[9] = test system: E. coli cells with AGS1 variant AGS1m4 (pAX3428), A151T, V214M, S276Y, SEQ ID NO:10; assay: growth of E. coli on herbicide plates, ags1m4; format: cell-based; conditions: than the other variants, except AGS1m16
Text: Mutants of the bacterial glutamine synthetase gene ags1 (SEQ ID NO:1) were created by error-prone mutagenesis using the GENEMORPH® Random Mutagenesis kit, and also using oligo-directed mutagenesis as known in the art. However, many methods are available for creating libraries of mutants. […]

ags1 mutant E. coli = assay: Complementation of a glutamine synthase mutant; format: cell-based
Text: Clones containing ags1m1 (pAX3421) and ags1m2 (pAX3422) were selected for further work.

[10] = test system: ags1 glutamine synthetase enzyme; assay: Enzymatic activity of purified 6Xhis-tagged glutamine synthetases with and without glufosinate; format: biochemical, Serratia marcescens; conditions: for enzymatic activity compared with wild type AGS1: 5 minute assay, absence of glufosinate
Text: as §5

Serratia marcescens glutamine synthetase AGS1 variant AGS1(AD-), tyrosine 398 to phenylalanine, SEQ ID NO:44 (Serratia marcescens; Y398F)
Km (N[C@@H](CCC(=O)O)C(=O)O [1]): 3.4 mM

Serratia marcescens glutamine synthetase AGS1 variant AGS1m17(AD-), F81S, P185S, H212T, V214A, G218S, I303N plus tyrosine 398 to phenylalanine, SEQ ID NO:46 (Serratia marcescens; F81S/G218S/H212T/I303N/P185S/V214A/Y398F)
Km (N[C@@H](CCC(=O)O)C(=O)O [2]): 14.1 mM

ags1m16: ags1 variant F81S, P185S, H212N, G218S, I303N; SEQ ID NO:31/32
resistance conferred upon E. coli, compared among variants (E. coli cells [3]): most resistance
growth on 200 mM glufosinate plates (E. coli cells [3]; M63+ plates, 200 mM glufosinate): ability to grow on 200 mM glufosinate plates
Total protein, Avg. (maize; average of nine ags1m16 events): 16.8 mg/g dry
higher protein content than the control plants (maize; average, versus control plants without ags1m16): 24%

ags1m7: ags1 variant G168C, V214M, K395R; SEQ ID NO:13/14
growth on glufosinate minimal M63+ agar media (E. coli cells [3]): grow on 2, 10, 20, 50, and 100 mM glufosinate

Serratia marcescens glutamine synthetase AGS1 variant AGS1m21, N160S, G167R, V214M, SEQ ID NO:42 (Serratia marcescens; G167R/N160S/V214M)
Km (N[C@@H](CCC(=O)O)C(=O)O [4]): 12.0 mM

CS(=N)(=O)CCC(N)C(=O)O (stereo not drawn) [Methione sulfoximine (MSO), Methione sulfoximine]
inhibition of pea leaf glutamine synthetase [5]: mixed competitive inhibitor

ags1m14: ags1 variant V150M, D166N, V214M, G289S, A420V; SEQ ID NO:27/28
growth on glufosinate minimal M63+ agar media (E. coli cells [3]): grow on 2, 10, 20, 50, and 100 mM glufosinate

Serratia marcescens ATX 20345 glutamine synthetase AGS1, wild type, SEQ ID NO:2 (Serratia marcescens)
Km (N[C@@H](CCC(=O)O)C(=O)O [6]): 3.4 mM
Vmax (N[C@@H](CCC(=O)O)C(=O)O [6]): 0.10 nmol/min/µg
kcat (N[C@@H](CCC(=O)O)C(=O)O [6]): 0.08 s⁻¹

ags1m4: ags1 variant A151T, V214M, S276Y; SEQ ID NO:9/10
speed of colony growth on 50 mM glyphosate (E. coli cells [7]): grow more quickly

ags1m12: ags1 variant V207I, V214M; SEQ ID NO:23/24
growth on glufosinate minimal M63+ agar media (E. coli cells [3]): grow on 2, 10, 20, 50, and 100 mM glufosinate

O=C(O)CNCP(=O)(O)O [glyphosate]
colony growth on 50 mM glyphosate versus other variants [8]: grow more quickly
colony growth on 50 mM glyphosate versus other variants [9]: grow more quickly

ags1m11: ags1 variant G56A, V214E; SEQ ID NO:21/22
growth on glufosinate minimal M63+ agar media (E. coli cells [3]): grow on 2, 10, 20, 50, and 100 mM glufosinate
speed of colony growth on 50 mM glyphosate (E. coli cells [7]): grow more quickly

ags1m1: glufosinate resistant ags1 variant V39I, V214M; SEQ ID NO:3/4
growth on glufosinate minimal M63+ agar media (E. coli cells [3]): grow on 2, 10, 20, 50, and 100 mM glufosinate
complementation of ags1 mutant E. coli (ags1 mutant E. coli): complement ags1 mutant E. coli
growth rate in complementation of ags1 mutant E. coli (ags1 mutant E. coli; comparison of ags1m1 with ags1m2): growing at a faster rate than ags1m2
enzymatic activity compared with wild type AGS1 [10]: indistinguishable from wild type enzyme

ags1m2: ags1 variant F81S, P185S, G218S, I303N; SEQ ID NO:5/6
speed of colony growth on 50 mM glyphosate (E. coli cells [7]): grow more quickly
complementation of ags1 mutant E. coli (ags1 mutant E. coli): complement ags1 mutant E. coli
enzymatic activity compared with wild type AGS1 [10]: relatively little enzymatic activity
enzymatic reaction overnight ([10]; overnight): appeared to go to completion overnight
